Earlier results on 3 compounds are cited in PubChem BioAssay AID1259409 (Chemical Carcinogenesis Research Information System (CCRIS), 2018).

“And” between values parts separate entries of the source, which are not always exact repeats. Identical values can stand only once.

This data set has as its system rodent chemically induced tumor inhibition, incidence and multiplicity. The data set can be described thus: CCRIS tumor inhibitor studies.

In the case of `CSCC[C@H](NC(=O)[C@@H](N)Cc1c[nH]c2ccccc12)C(=O)N[C@@H](CC(=O)O)C(=O)N[C@@H](Cc1ccccc1)C(N)=O`, for the setting “Carcinogen: N-METHYL-N'-NITRO-N-NITROSOGUANIDINE, 70-25-7, Dose [Inhibitor]: 1 MG/KG BW IN DEPOT FORM 1/2 D BEGINNING 1 WK POST LAST CARCINOGEN DOSE FOR DURATION OF STUDY (STUDY DURATION: 52 WK), Route [Inhibitor]: SUBCUTANEOUS, Species: RAT, Strain/Sex: WISTAR/MALE, Target Tissue: Type of Lesion: STOMACH: ADENOCARCINOMA, Dose [Carcinogen]: 50 UG/ML IN DRINKING WATER FOR 25 WK, Promoter: NONE USED”, the “tumour outcome (control, treated, inhibition, significance)” value is reported as 12/19 (63%), 6/19 (32%), 49%, p<0.05.
On to `CCCC[C@@H](C)[C@@H](OC(=O)C[C@@H](CC(=O)O)C(=O)O)[C@H](C[C@@H](C)C[C@H](O)CCCC[C@@H](O)C[C@H](O)[C@H](C)N)OC(=O)C[C@@H](CC(=O)O)C(=O)O`, for which the “tumour outcome (control, treated, inhibition, significance)” value (Carcinogen: N-METHYL-N'-NITRO-NITROSOGUANIDINE, 13830-58-5, Dose [Inhibitor]: 0, 3.2 PPM IN FEED FOR 42 WK BEGINNING 1 MO POST CARCINOGEN TREATMENT (STUDY DURATION: 64 WK), Route [Inhibitor]: ORAL, Species: FISH, Strain/Sex: SHASTA RAINBOW TROUT/MALE,FEMALE, Target Tissue: Type of Lesion: KIDNEY: TUMOR, Dose [Carcinogen]: 35 PPM IN WATER FOR 30 MIN, Promoter: NONE) is 19%, 14%, 26%, not significant; the “tumour outcome (control, treated, inhibition, significance)” value (Carcinogen: N-METHYL-N'-NITRO-NITROSOGUANIDINE, 13830-58-5, Dose [Inhibitor]: 0, 3.2 PPM IN FEED FOR 42 WK BEGINNING 1 MO POST CARCINOGEN TREATMENT (STUDY DURATION: 64 WK), Route [Inhibitor]: ORAL, Species: FISH, Strain/Sex: SHASTA RAINBOW TROUT/MALE,FEMALE, Target Tissue: Type of Lesion: LIVER: TUMOR, Dose [Carcinogen]: 35 PPM IN WATER FOR 30 MIN, Promoter: NONE) is recorded as 45%, 25%, 44%, not significant; the “tumour outcome (control, treated, inhibition, significance)” value (Carcinogen: N-METHYL-N'-NITRO-NITROSOGUANIDINE, 13830-58-5, Dose [Inhibitor]: 0, 3.2 PPM IN FEED FOR 42 WK BEGINNING 1 MO POST CARCINOGEN TREATMENT (STUDY DURATION: 64 WK), Route [Inhibitor]: ORAL, Species: FISH, Strain/Sex: SHASTA RAINBOW TROUT/MALE,FEMALE, Target Tissue: Type of Lesion: STOMACH: TUMOR, Dose [Carcinogen]: 35 PPM IN WATER FOR 30 MIN, Promoter: NONE) is listed as 32%, 40%, -25%, not significant; the “tumour outcome (control, treated, inhibition, significance)” value (Carcinogen: N-METHYL-N'-NITRO-NITROSOGUANIDINE, 13830-58-5, Dose [Inhibitor]: 0, 3.2 PPM IN FEED FOR 42 WK BEGINNING 1 MO POST CARCINOGEN TREATMENT (STUDY DURATION: 64 WK), Route [Inhibitor]: ORAL, Species: FISH, Strain/Sex: SHASTA RAINBOW TROUT/MALE,FEMALE, Target Tissue: Type of Lesion: SWIM BLADDER: TUMOR, Dose [Carcinogen]: 35 PPM IN WATER FOR 30 MIN, Promoter: NONE) is 54%, 44%, 18%, not significant; the “tumour outcome (control, treated, inhibition, significance)” value (Carcinogen: N-METHYL-N'-NITRO-NITROSOGUANIDINE, 13830-58-5, Dose [Inhibitor]: 0, 23 PPM IN FEED FOR 42 WK BEGINNING 1 MO POST CARCINOGEN TREATMENT (STUDY DURATION: 64 WK), Route [Inhibitor]: ORAL, Species: FISH, Strain/Sex: SHASTA RAINBOW TROUT/MALE,FEMALE, Target Tissue: Type of Lesion: KIDNEY: TUMOR, Dose [Carcinogen]: 35 PPM IN WATER FOR 30 MIN, Promoter: NONE) is recorded as 19%, 13%, 32%, not significant; the “tumour outcome (control, treated, inhibition, significance)” value (Carcinogen: N-METHYL-N'-NITRO-NITROSOGUANIDINE, 13830-58-5, Dose [Inhibitor]: 0, 23 PPM IN FEED FOR 42 WK BEGINNING 1 MO POST CARCINOGEN TREATMENT (STUDY DURATION: 64 WK), Route [Inhibitor]: ORAL, Species: FISH, Strain/Sex: SHASTA RAINBOW TROUT/MALE,FEMALE, Target Tissue: Type of Lesion: STOMACH: TUMOR, Dose [Carcinogen]: 35 PPM IN WATER FOR 30 MIN, Promoter: NONE) is given as 32%, 31%, 3%, not significant. Further, the “tumour outcome (control, treated, inhibition, significance)” value was 19%, 6%, 68%, p<0.05 (Carcinogen: N-METHYL-N'-NITRO-NITROSOGUANIDINE, 13830-58-5, Dose [Inhibitor]: 0, 104 PPM IN FEED FOR 42 WK BEGINNING 1 MO POST CARCINOGEN TREATMENT (STUDY DURATION: 64 WK), Route [Inhibitor]: ORAL, Species: FISH, Strain/Sex: SHASTA RAINBOW TROUT/MALE,FEMALE, Target Tissue: Type of Lesion: KIDNEY: TUMOR, Dose [Carcinogen]: 35 PPM IN WATER FOR 30 MIN, Promoter: NONE); 45%, 76%, -69%, p<0.05 (Carcinogen: N-METHYL-N'-NITRO-NITROSOGUANIDINE, 13830-58-5, Dose [Inhibitor]: 0, 104 PPM IN FEED FOR 42 WK BEGINNING 1 MO POST CARCINOGEN TREATMENT (STUDY DURATION: 64 WK), Route [Inhibitor]: ORAL, Species: FISH, Strain/Sex: SHASTA RAINBOW TROUT/MALE,FEMALE, Target Tissue: Type of Lesion: LIVER: TUMOR, Dose [Carcinogen]: 35 PPM IN WATER FOR 30 MIN, Promoter: NONE); 32%, 12%, 62%, p<0.05 and 54%, 51%, 6%, not significant (Carcinogen: N-METHYL-N'-NITRO-NITROSOGUANIDINE, 13830-58-5, Dose [Inhibitor]: 0, 104 PPM IN FEED FOR 42 WK BEGINNING 1 MO POST CARCINOGEN TREATMENT (STUDY DURATION: 64 WK), Route [Inhibitor]: ORAL, Species: FISH, Strain/Sex: SHASTA RAINBOW TROUT/MALE,FEMALE, Target Tissue: Type of Lesion: STOMACH: TUMOR, Dose [Carcinogen]: 35 PPM IN WATER FOR 30 MIN, Promoter: NONE).
In the case of `CC1=C(/C=C/C(C)=C/C=C/C(C)=C/C(=O)Nc2nn[nH]n2)C(C)(C)CCC1`, the “tumour outcome (control, treated, inhibition, significance)” value (Carcinogen: N-BUTYL-N-(4-HYDROXYBUTYL)NITROSAMINE, 3817-11-6, Dose [Inhibitor]: 1.5 MMOL/KG DIET DAILY FOR 159 D STARTING 1 WK AFTER THE FINAL CARCINOGEN DOSE (STUDY DURATION: 216 D), Route [Inhibitor]: ORAL, Species: MOUSE, Strain/Sex: BDF/MALE, Target Tissue: Type of Lesion: URINARY BLADDER: TRANSITIONAL CELL CARCINOMA, Dose [Carcinogen]: 7.5 MG 1/WK FOR 8 WK, Promoter: NONE USED) was 29/98 (30%), 15/97 (16%), 47%, p<0.05 and the “tumour outcome (control, treated, inhibition, significance)” value (Carcinogen: N-BUTYL-N-(4-HYDROXYBUTYL)NITROSAMINE, 3817-11-6, Dose [Inhibitor]: 1.5 MMOL/KG/D IN DIET FOR 159 D STARTING 1 WK POST CARCINOGEN TREATMENT (STUDY DURATION: 216 D), Route [Inhibitor]: ORAL, Species: MOUSE, Strain/Sex: BDF/MALE, Target Tissue: Type of Lesion: URINARY BLADDER: TRANSITIONAL CELL CARCINOMA, Dose [Carcinogen]: 7.5 MG 1/WK FOR 8 WK, Promoter: NONE USED) is on record as 29/98 (30%), 15/97 (16%), 47%, p<0.05.
